In publication PMC10122656, “Siglec-6 mediates the uptake of extracellular vesicles through a noncanonical glycolipid binding pocket” (Nature Communications, 2023):
Several values for one entry are separate records, joined by “and”; a condition that tells them apart may be missing. Identical values can stand only once.

Tests used:
Experiment in all cases: Cell assay (liposome/EV binding, flow cytometry)
Assay type in all cases: cell-based
[1] = molecular target: T1, Siglec-7 R124A CHO cells (Homo sapiens, UniProt Q9Y286, R124A); conditions: Sig-7 R124A†; † after treatment of cells with neuraminidase; 3 mol% ganglioside liposomes; replicates
T1 construct: expressed in transfected cells
T1 sequence (Q9Y286 19-467 R124A): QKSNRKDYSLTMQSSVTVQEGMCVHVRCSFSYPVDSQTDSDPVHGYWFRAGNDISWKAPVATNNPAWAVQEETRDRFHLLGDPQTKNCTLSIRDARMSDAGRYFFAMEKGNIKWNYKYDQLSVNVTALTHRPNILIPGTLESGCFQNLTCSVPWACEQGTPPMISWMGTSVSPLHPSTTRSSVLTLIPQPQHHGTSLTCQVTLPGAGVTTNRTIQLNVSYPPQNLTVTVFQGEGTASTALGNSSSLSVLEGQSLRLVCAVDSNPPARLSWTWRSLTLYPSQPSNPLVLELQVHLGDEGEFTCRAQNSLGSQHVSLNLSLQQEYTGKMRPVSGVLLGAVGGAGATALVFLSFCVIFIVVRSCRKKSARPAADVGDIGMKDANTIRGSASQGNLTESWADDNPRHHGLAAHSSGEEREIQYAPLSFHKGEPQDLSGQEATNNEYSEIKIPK
Experimental: (§1) Stock lipids (DSPC, Cholesterol, PEG45–DSPE) solutions were prepared by solvating the lipids in chloroform. An appropriate volume of each lipid solution was transferred to a glass test tube to reach the desired mol% of the component. The chloroform was then removed under N2 gas to yield a lipid thin film. Once dry, 100 µL of DMSO was added to the lipid-containing test tube and then the functional lipids (ganglioside, AF647–PEG45–DSPE, Siglec ligand–PEG45–DSPE, pHrodo–PEG45–DSPE, NGL) was added from their respect DMSO stock solution. The lipid mixture was then stored at −80 °C until completely frozen at which point excess DMSO was removed via lyophilization. Dry lipids were then stored at −80 °C until they were extruded. Lipid suppliers can be found in Supplementary Table 4.
(§2) Dry lipids were then hydrated in 1 mL of PBS. The lipids were then sonicated in a bath sonicator in a cycle of 1 min on, 5 min off for a total of five cycles. Liposomes were then extruded using an Avanti mini extruder first using an 800 nm filter and then a 100 nm filter yielding liposomes that were 130 ± 35 nm (Supplementary Table 5) measured using a Malvern Panalytical Zetasizer Nano S. Liposomes were stored at 4 °C.
(§3) 200,000 cells/well were plated into a 96-well U-bottom microplate and centrifuged at 300 × g for 5 min. The cells were then resuspended in 50 µL of 50 µM liposome/50 µg/mL (protein concentration) of EV solution in DMEM F12 5% FBS and incubated at 37 °C for 30 min. Excess liposomes were then removed via centrifuged at 300 × g for 5 min followed by washing the cells with FACS solution. The cells were then resuspended in (1:250 V/V) anti-Siglec-flow buffer (1% V/V FBS, 500 µM, EDTA Hank’s Balanced Salt Solution pH 7.4), solution and left to rest on ice for 30 min. The cells were then centrifuged again at 300 × g for 5 min and the cells were resuspended in FACS buffer solution and were then ready for analysis by flow cytometry. Information regarding antibody clone, catalog number supplier, label isotype, and dilution can be found in Supplementary Table 6. The Siglec-positive cells were gated on for liposome-binding analysis (Supplementary Fig. 1b).
(§4) Flow cytometry measurements were collected on a 5-laser Fortessa X-20 (BD Bioscience). All the resulting data were analyzed using FlowJo (10.5.3) software (BD Biosciences).
(§5) Cells were harvested and resuspended in complete media with either Neuraminidase A or S. The cells were then placed in a 37 °C shaking incubator for 1 h. The cells were then washed with complete media and then the liposome binding assay was performed as described above.

[2] = molecular target: T2, Siglec-4 R118A CHO cells (Homo sapiens, UniProt P20916, R118A); conditions: Sig-4 R118A†; † after treatment of cells with neuraminidase; 3 mol% ganglioside liposomes; replicates
T2 construct: expressed in transfected cells
T2 sequence (P20916 20-626 R118A): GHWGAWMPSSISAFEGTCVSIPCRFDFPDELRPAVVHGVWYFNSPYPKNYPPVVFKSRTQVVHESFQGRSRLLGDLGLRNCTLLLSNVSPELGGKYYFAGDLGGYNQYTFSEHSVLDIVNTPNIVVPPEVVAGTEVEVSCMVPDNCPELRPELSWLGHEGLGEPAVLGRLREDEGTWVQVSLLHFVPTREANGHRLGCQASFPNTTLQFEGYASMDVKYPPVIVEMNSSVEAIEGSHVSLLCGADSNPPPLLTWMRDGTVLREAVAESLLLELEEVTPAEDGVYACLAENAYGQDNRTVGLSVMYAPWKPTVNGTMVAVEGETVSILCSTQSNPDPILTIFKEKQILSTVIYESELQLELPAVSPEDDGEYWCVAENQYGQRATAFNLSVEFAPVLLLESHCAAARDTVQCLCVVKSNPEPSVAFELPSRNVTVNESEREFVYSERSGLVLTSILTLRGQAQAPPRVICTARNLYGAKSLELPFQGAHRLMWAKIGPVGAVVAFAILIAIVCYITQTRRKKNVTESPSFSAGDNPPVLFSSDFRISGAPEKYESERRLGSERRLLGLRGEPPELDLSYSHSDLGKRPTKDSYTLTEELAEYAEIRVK
Experimental: as §1, §2, §3, §4, §5

[3] = molecular target: T3, Siglec-5 R119A CHO cells (Homo sapiens, UniProt O15389, R119A); conditions: Sig-5 R119A†; † after treatment of cells with neuraminidase; 3 mol% ganglioside liposomes; replicates
T3 construct: expressed in transfected cells
T3 sequence (O15389 17-551 R119A): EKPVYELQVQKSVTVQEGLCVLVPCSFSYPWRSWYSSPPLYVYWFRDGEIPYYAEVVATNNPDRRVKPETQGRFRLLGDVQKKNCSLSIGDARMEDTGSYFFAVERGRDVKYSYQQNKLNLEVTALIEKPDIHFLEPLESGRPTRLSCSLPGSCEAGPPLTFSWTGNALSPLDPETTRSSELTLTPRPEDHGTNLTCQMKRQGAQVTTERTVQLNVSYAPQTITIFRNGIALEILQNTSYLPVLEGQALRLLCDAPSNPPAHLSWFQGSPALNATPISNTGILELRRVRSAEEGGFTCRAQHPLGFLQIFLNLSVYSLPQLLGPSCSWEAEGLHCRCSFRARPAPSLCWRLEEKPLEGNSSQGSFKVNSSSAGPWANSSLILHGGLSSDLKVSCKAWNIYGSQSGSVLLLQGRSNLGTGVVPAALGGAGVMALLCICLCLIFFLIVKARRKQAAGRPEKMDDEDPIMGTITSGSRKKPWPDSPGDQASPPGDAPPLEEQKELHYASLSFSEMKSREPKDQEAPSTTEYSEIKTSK
Experimental: as §1, §2, §3, §4, §5

Substance: GD3
- log10(MFI AF647) of GLL relative to log10(MFI AF647) of the same GLL against UT CHO cells (Fig. 2a) [1]: -0.08 and -0.02 and -0.1
- log10(MFI AF647) of GLL relative to log10(MFI AF647) of the same GLL against UT CHO cells (Fig. 2a) [2]: -0.13 and -0.1 and -0.07 and -0.14
- log10(MFI AF647) of GLL relative to log10(MFI AF647) of the same GLL against UT CHO cells (Fig. 2a) [3]: -0.21 (2×) and -0.15 (2×)

Substance: GD1b
- log10(MFI AF647) of GLL relative to log10(MFI AF647) of the same GLL against UT CHO cells (Fig. 2a) [1]: -0.23 (2×) and -0.27
- log10(MFI AF647) of GLL relative to log10(MFI AF647) of the same GLL against UT CHO cells (Fig. 2a) [2]: 0.08 and 0.05 and 0.02 and 0.03
- log10(MFI AF647) of GLL relative to log10(MFI AF647) of the same GLL against UT CHO cells (Fig. 2a) [3]: 0.17 and -0.03 and -0.02 and 0.04

Substance: GM3
- log10(MFI AF647) of GLL relative to log10(MFI AF647) of the same GLL against UT CHO cells (Fig. 2a) [1]: -0.45 and -0.31 and -0.25
- log10(MFI AF647) of GLL relative to log10(MFI AF647) of the same GLL against UT CHO cells (Fig. 2a) [2]: -0.24 and -0.19 (2×) and -0.2
- log10(MFI AF647) of GLL relative to log10(MFI AF647) of the same GLL against UT CHO cells (Fig. 2a) [3]: -0.22 (2×) and -0.21 and -0.24

Substance: GT1b
- log10(MFI AF647) of GLL relative to log10(MFI AF647) of the same GLL against UT CHO cells (Fig. 2a) [1]: -0.17 and -0.19 and -0.09
- log10(MFI AF647) of GLL relative to log10(MFI AF647) of the same GLL against UT CHO cells (Fig. 2a) [2]: 0.12 and 0.1 and 0.13 and 0.14
- log10(MFI AF647) of GLL relative to log10(MFI AF647) of the same GLL against UT CHO cells (Fig. 2a) [3]: -0.05 and -0.03 and 0.02 and 0.1

Substance: GM1
- log10(MFI AF647) of GLL relative to log10(MFI AF647) of the same GLL against UT CHO cells (Fig. 2a) [1]: -0.08 and -0.05 and -0.01
- log10(MFI AF647) of GLL relative to log10(MFI AF647) of the same GLL against UT CHO cells (Fig. 2a) [2]: -0.3 and -0.31 (2×) and -0.32
- log10(MFI AF647) of GLL relative to log10(MFI AF647) of the same GLL against UT CHO cells (Fig. 2a) [3]: -0.32 and -0.33 and -0.29 and -0.28

Substance: GQ1b
- log10(MFI AF647) of GLL relative to log10(MFI AF647) of the same GLL against UT CHO cells (Fig. 2a) [1]: 0.01 and -0.05 and -0.03
- log10(MFI AF647) of GLL relative to log10(MFI AF647) of the same GLL against UT CHO cells (Fig. 2a) [2]: -0.12 and -0.13 (2×) and -0.1
- log10(MFI AF647) of GLL relative to log10(MFI AF647) of the same GLL against UT CHO cells (Fig. 2a) [3]: -0.2 and -0.19 and -0.12 and -0.08

Substance: GD1a
- log10(MFI AF647) of GLL relative to log10(MFI AF647) of the same GLL against UT CHO cells (Fig. 2a) [1]: -0.2 and -0.15 and -0.24
- log10(MFI AF647) of GLL relative to log10(MFI AF647) of the same GLL against UT CHO cells (Fig. 2a) [2]: 0 (2×) and 0.02 and 0.01
- log10(MFI AF647) of GLL relative to log10(MFI AF647) of the same GLL against UT CHO cells (Fig. 2a) [3]: -0.25 and -0.02 and -0.03 and 0.01

Substance: GM4
- log10(MFI AF647) of GLL relative to log10(MFI AF647) of the same GLL against UT CHO cells (Fig. 2a) [1]: -0.35 and -0.25 and -0.4
- log10(MFI AF647) of GLL relative to log10(MFI AF647) of the same GLL against UT CHO cells (Fig. 2a) [2]: -0.12 (2×) and -0.1 and -0.07
- log10(MFI AF647) of GLL relative to log10(MFI AF647) of the same GLL against UT CHO cells (Fig. 2a) [3]: -0.2 (3×) and -0.21

Substance: GM2
- log10(MFI AF647) of GLL relative to log10(MFI AF647) of the same GLL against UT CHO cells (Fig. 2a) [1]: -0.25 and -0.22 and -0.35
- log10(MFI AF647) of GLL relative to log10(MFI AF647) of the same GLL against UT CHO cells (Fig. 2a) [2]: 0 and -0.04 and -0.02 and -0.03
- log10(MFI AF647) of GLL relative to log10(MFI AF647) of the same GLL against UT CHO cells (Fig. 2a) [3]: -0.1 and -0.09 (2×) and -0.11
